For one data set, the system named is RKO. The experiment in a line: Cell viability assay (MTT), RKO. It is filed as cell-based. Particulars: read-out: RKO EC50 (72 h), RKO cells. The procedure: Row H of the plate contained the controls. Wells H1-H3 received 20 μL of assay media.
Further dilutions were used for potent peptides.
80 µL of assay media was removed from each well. […] Cell viability was analyzed against the DMSO controls.

The test system of another data set is H211 xenograft tumors. The data set can be described thus: Anti-tumor activity of topotecan with AP-1, H211 model. Particulars: H211, topotecan days 1-5, FIG. 17C. It is filed as in vivo, nu/nu mice. The procedure:
(§1) C57BL/6 mice bearing established syngeneic MC38 colon cancer tumors, or nu/nu mice bearing established H69 or H211 xenograft tumors were treated with topotecan on days 1-5 and either AP-1 or vehicle on days 0-4. Median tumor volume and mouse survival was assessed.

The subject of a further data set is MC38 colon cancer tumors. The experiment in a line: Anti-tumor activity of topotecan with AP-1, MC38 model. It is filed as in vivo, C57BL/6 mice. Particulars: MC38, topotecan days 1-5, FIG. 17A. The protocol: as §1
The next data set has as its system H69 xenograft tumors. The experiment in a line: Anti-tumor activity of topotecan with AP-1, H69 model. Particulars: H69, topotecan days 1-5, FIG. 17B. It is filed as in vivo, nu/nu mice. The protocol: as §1
The test system of the next data set is gut tissue. The experiment in a line: Topotecan-induced mucositis (gut histopathology). Particulars: Group 3: […] topotecan days 2-6, 10 mice. It is filed as in vivo, C57BL/6 mice. The procedure:
The effect of a peptidomimetic macrocycle of the disclosure on topotecan-induced mucositis is assessed in a controlled, in vivo study. Four groups of mice (10 mice per group) are involved in the study, and administration of agents occurs over a 6-day treatment period. The first group of mice (Group 1) is treated with a vehicle control on days 2, 3, 4, 5, and 6 of the treatment period. The second group of mice (Group 2) is treated intravenously with 2.4 mg/kg of a peptidomimetic macrocycle on days 1, 2, 3, 4, and 5 of a 6-day treatment period. The third group of mice (Group 3) is treated with 1.5 mg/kg of topotecan on days 2, 3, 4, 5, and 6 of the 6-day treatment period. The fourth group of mice (Group 4) is treated with 2.4 mg/kg of the peptidomimetic macrocycle on days 1, 2, 3, 4, and 5 of the 6-day treatment period and 1.5 mg/kg of topotecan on days 2, 3, 4, 5, and 6 of the 6-day treatment period. Gut samples are then taken from mice on days 7 and 9 post treatment. Histopathology analysis of gut samples is performed to assess hypertrophy/hyperplasia. In some embodiments, all gut samples from mice in Groups 1 and 2 receive a hypertrophy/hyperplasia score of 0. […]
C57BL/6 mice (n=10 per group) were divided into four treatment groups. […] Images and gut tissues and quantification of pathology scores can be seen in FIG. 24A.

The next data set deals with T1, MDMX (Homo sapiens, UniProt O15151).
T1 sequence (O15151 1-125): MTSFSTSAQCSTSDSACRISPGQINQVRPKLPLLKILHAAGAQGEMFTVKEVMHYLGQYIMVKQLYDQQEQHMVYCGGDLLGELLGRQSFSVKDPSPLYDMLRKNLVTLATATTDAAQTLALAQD
The experiment in a line: Competitive fluorescence polarization assay for MDMX. It is filed as binding.

Another data set deals with MDM2 (Homo sapiens, UniProt Q00987). The experiment in a line: Competitive fluorescence polarization assay for MDM2. It is filed as binding. For orientation: Fluorescence polarisation rises when a labelled molecule tumbles more slowly, as on binding a larger partner.
Sequence of MDM2 (Q00987 1-125): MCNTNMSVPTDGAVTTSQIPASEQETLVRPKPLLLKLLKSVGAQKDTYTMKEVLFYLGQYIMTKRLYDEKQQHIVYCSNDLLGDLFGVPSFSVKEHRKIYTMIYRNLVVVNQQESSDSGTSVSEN

Each structure is given as a SMILES string.

Method for MDM2: 1 mM of FAM-labeled linear peptide (in 100% DMSO) was diluted to 100 μM with DMSO (dilution 1:10). Then, diluted solution was further diluted from 100 μM to 10 μM with water (dilution 1:10), and diluted again with FP buffer from 10 μM to 40 nM (dilution 1:250). […] The diluted FAM-labeled peptides were kept in the dark until use.
Unlabeled peptide dose plates were prepared with FP buffer starting with 1 μM (final) of the peptide. […] 10 mM of the solution (in 100% DMSO) with DMSO to 5 mM (dilution 1:2); dilution from 5 mM to 500 μM with H2O (dilution 1:10); and dilution with FP buffer from 500 μM to 20 μM (dilution 1:25). […] 10 μl of 10 nM (4×) of FAM-labeled peptide was added into each well, and the wells were incubated for 3 h before being read.
Method for MDMX: MDMX (40 kD) was diluted into FP buffer (high-salt buffer 200 mM NaCl, 5 mM CHAPS, pH 7.5) to make a 300 nM (2×) working stock solution. 20 μl of the 300 nM (2×) of protein stock solution was added into each well of 96-well black microplate. 1 mM (in 100% DMSO) of a FAM-labeled linear peptide was diluted with DMSO to a concentration of 100 μM (dilution 1:10). The solution was diluted from 100 μM to 10 μM with water (dilution 1:10), and diluted further with FP buffer from 10 μM to 40 nM (dilution 1:250). […] The diluted FAM-labeled peptide was kept in the dark until use. An unlabeled peptide dose plate was prepared with FP buffer starting with a concentration of 5 μM (final) of a peptide. […] 10 mM (in 100% DMSO) of the solution was diluted with DMSO to prepare a 5 mM (dilution 1:2) solution. The solution was diluted from 5 mM to 500 μM with H2O (dilution 1:10), and diluted further with FP buffer from 500 μM to 20 μM (dilution 1:25). […] 10 μl of the serially diluted unlabeled peptides were added to each well, which was filled with 20 μl of the 300 nM protein solution. 10 μl of the 10 nM (4×) FAM-labeled peptide solution was added into each well, and the wells were incubated for 3 h before reading.

For `CC(C)C[C@H](NC(=O)CN(C)C)C(=O)N[C@H](C(=O)N[C@@H](Cc1ccccc1)C(=O)N[C@]1(C)CCCCCCC=CCCC[C@@](C)(C(=O)N[C@@H](CO)C(=O)N[C@@H](C)C(=O)N[C@@H](C)C(N)=O)NC(=O)[C@H](CC2CCC2)NC(=O)[C@H](CCC(N)=O)NC(=O)[C@H](C)NC(=O)[C@H](Cc2c[nH]c3ccccc23)NC(=O)[C@H](Cc2ccc(O)cc2)NC(=O)[C@H](CCC(=O)O)NC1=O)[C@@H](C)O` [compound 435], in the data set on RKO, the EC50 (in general, the concentration that produces a half-maximal response) lay within 1000 to 30000 nM. Turning to `CC(=O)N[C@@H](C)C(=O)N[C@@H](CC(C)C)C(=O)N[C@H](C(=O)N[C@@H](Cc1ccccc1)C(=O)N[C@]1(C)CCCCCCC=CCCC[C@@](C)(C(=O)N[C@@H](CO)C(=O)N[C@@H](C)C(=O)N[C@@H](C)C(=O)N[C@H](C)C(N)=O)NC(=O)[C@H](CC2CCC2)NC(=O)[C@H](CCC(N)=O)NC(=O)[C@H](C)NC(=O)[C@H](Cc2c[nH]c3ccccc23)NC(=O)[C@H](Cc2ccc(O)cc2)NC(=O)[C@H](CCC(=O)O)NC1=O)[C@@H](C)O` (single isomer, unassigned) [compound 355], in the data set on RKO, the EC50 fell in the range of 1000 to 30000 nM. Still for that read-out and setting: under `CC(=O)N[C@@H](C)C(=O)N[C@@H](C)C(=O)N[C@@H](CC(C)C)C(=O)N[C@H](C(=O)N[C@@H](Cc1ccccc1)C(=O)N[C@]1(C)CCCCCCC=CCCC[C@@](C)(C(=O)N[C@@H](CO)C(=O)N[C@@H](C)C(=O)N[C@@H](C)C(=O)N[C@@H](C)C(=O)N[C@H](C)C(N)=O)NC(=O)[C@H](CC2CCC2)NC(=O)[C@H](CCC(N)=O)NC(=O)[C@H](C)NC(=O)[C@H](Cc2c[nH]c3ccccc23)NC(=O)[C@H](Cc2ccc(O)cc2)NC(=O)[C@H](CCC(=O)O)NC1=O)[C@@H](C)O` (single isomer, unassigned) [compound 359] stands 1000 to 30000 nM.

`CC(=O)N[C@@H](C)C(=O)N[C@@H](C)C(=O)N[C@@H](CC(C)C)C(=O)N[C@H](C(=O)N[C@@H](Cc1ccccc1)C(=O)N[C@]1(C)CCCCCCC=CCCC[C@@](C)(C(=O)N[C@@H](CO)C(=O)N[C@@H](C)C(=O)N[C@@H](C)C(=O)N[C@@H](C)C(=O)N[C@H](C)C(N)=O)NC(=O)[C@H](CC2CCC2)NC(=O)[C@H](CCC(N)=O)NC(=O)[C@H](C)NC(=O)[C@H](Cc2c[nH]c3ccccc23)NC(=O)[C@H](Cc2ccc(O)cc2)NC(=O)[C@H](CCC(=O)O)NC1=O)[C@@H](C)O` (single isomer, unassigned) [compound 358]: the concentration giving a half-maximal response (EC50) with RKO fell in the range of 1000 to 30000 nM.

Take `CC(=O)N[C@@H](CC(C)C)C(=O)N[C@H](C(=O)N[C@@H](Cc1ccccc1)C(=O)N[C@]1(C)CCCCCCC=CCCC[C@@](C)(C(=O)N[C@@H](CO)C(=O)N[C@@H](C)C(=O)N[C@@H](C)C(N)=O)NC(=O)[C@H](CC2CCCCC2)NC(=O)[C@H](CCC(N)=O)NC(=O)[C@H](C)NC(=O)[C@H](Cc2c[nH]c3ccccc23)NC(=O)[C@H](Cc2ccc(O)cc2)NC(=O)[C@H](CCC(=O)O)NC1=O)[C@@H](C)O` (single isomer, unassigned) [compound 148]: in the data set on RKO, the EC50 lay in the range of 1000 to 30000 nM. Same read-out and setting: in the case of `CC(=O)N[C@@H](CC(C)C)C(=O)N[C@H](C(=O)N[C@@H](Cc1ccccc1)C(=O)N[C@]1(C)CCCCCCC=CCCC[C@@](C)(C(=O)N[C@@H](CO)C(=O)N[C@@H](C)C(=O)N[C@@H](C)C(N)=O)NC(=O)[C@H](C2CCCC2)NC(=O)[C@H](CCC(N)=O)NC(=O)[C@H](C)NC(=O)[C@H](Cc2c[nH]c3ccccc23)NC(=O)[C@H](Cc2ccc(O)cc2)NC(=O)[C@H](CCC(=O)O)NC1=O)[C@@H](C)O` (single isomer, unassigned) [compound 150] it was 1000 to 30000 nM. Take `CC(=O)N[C@@H](CCC(=O)O)C(=O)N[C@H](C(=O)N[C@@H](Cc1ccccc1)C(=O)N[C@]1(C)CCCCCCC=CCCC[C@@](C)(C(=O)N[C@@H](C)C(=O)N[C@@H](C)C(=O)N[C@@H](C)C(=O)N[C@@H](C)C(=O)N[C@@H](C)C(=O)N[C@H](C)C(N)=O)NC(=O)[C@H](CC(C)C)NC(=O)[C@H](CCC(N)=O)NC(=O)[C@H](C)NC(=O)[C@H](Cc2c[nH]c3ccccc23)NC(=O)[C@H](Cc2ccc(O)cc2)NC(=O)[C@H](CCC(=O)O)NC1=O)[C@@H](C)O` (single isomer, unassigned) [compound 341]: in the data set with RKO, the EC50 is 1000 to 30000 nM. Still for that read-out and setting: under `CCCC[C@H](NC(=O)[C@H](C)NC(=O)[C@H](C)NC(=O)[C@]1(C)CCC/C=C/CCCCCC[C@@](C)(NC(=O)[C@H](Cc2ccccc2)NC(=O)[C@@H](NC(=O)[C@H](CC(C)C)NC(C)=O)[C@@H](C)O)C(=O)N[C@@H](C)C(=O)N[C@@H](Cc2ccc(O)cc2)C(=O)N[C@@](C)(Cc2c[nH]c3ccccc23)C(=O)N[C@@H](C)C(=O)N[C@@H](CCC(N)=O)C(=O)N[C@@H](CC(C)C)C(=O)N1)C(=O)N[C@@H](C)C(N)=O` [compound 388] stands 1000 to 30000 nM; under `CC(=O)N[C@@H](CC(C)C)C(=O)N[C@H](C(=O)N[C@@H](Cc1ccccc1)C(=O)N[C@]1(C)CCCCCCC=CCCC[C@@](C)(C(=O)N[C@@H](CO)C(=O)N[C@@H](C)C(=O)N[C@@H](C)C(=O)N[C@H](C)C(N)=O)NC(=O)[C@H](CC2CCC2)NC(=O)[C@H](CCC(N)=O)NC(=O)[C@H](C)NC(=O)[C@H](Cc2c[nH]c3ccccc23)NC(=O)[C@H](Cc2ccc(O)cc2)NC(=O)[C@H](CCC(=O)O)NC1=O)[C@@H](C)O` (single isomer, unassigned) [compound 353], 1000 to 30000 nM. On the same count and under the same terms, in the case of `CC[C@H](C)[C@H](NC(=O)[C@H](C)NC(=O)[C@H](C)NC(=O)[C@]1(C)CCCC=CCCCCCC[C@@](C)(NC(=O)[C@H](Cc2ccccc2)NC(=O)[C@@H](NC(=O)[C@H](CC(C)C)NC(=O)CN(C)C)[C@@H](C)O)C(=O)N[C@@H](CCC(=O)O)C(=O)N[C@@H](Cc2ccc(C(=O)O)cc2)C(=O)N[C@@H](Cc2c[nH]c3ccccc23)C(=O)N[C@@H](C)C(=O)N[C@@H](CCC(N)=O)C(=O)N[C@@H](CC2CCC2)C(=O)N1)C(=O)N[C@H](C)C(N)=O` (single isomer, unassigned) [compound 440] it was 1000 to 30000 nM. Take `CC[C@@]1(O)C(=O)OCc2c1cc1n(c2=O)Cc2cc3c(CN(C)C)c(O)ccc3nc2-1` [topotecan]: in the data set on H211 xenograft tumors, the survival entry is “increased” and the tumor volumes entry is reported as “decreased”. Besides, in the data set on MC38 colon cancer tumors, the survival result is given as “increased” and the tumor volumes entry was “decreased”. In the data set on H69 xenograft tumors, the survival result is “increased” and the tumor volumes entry is “decreased”. Moreover, in the data set on gut tissue, the “mice with hyperplasia/hypertrophy score of 3” value is on record as “about 70%” and the “mice with hypertrophy/hyperplasia score of 2” value is “about 30%”. Consider `CC(=O)N[C@@H](CC(C)C)C(=O)N[C@H](C(=O)N[C@@H](C)C(=O)N[C@]1(C)CCCCCCC=CCCC[C@@](C)(C(=O)N[C@@H](CO)C(=O)N[C@@H](C)C(=O)N[C@@H](C)C(N)=O)NC(=O)[C@H](CC2CCC2)NC(=O)[C@H](CCC(N)=O)NC(=O)[C@H](C)NC(=O)[C@H](Cc2c[nH]c3ccccc23)NC(=O)[C@H](Cc2ccc(O)cc2)NC(=O)[C@H](CCC(=O)O)NC1=O)[C@@H](C)O` (single isomer, unassigned) [compound 252], for which, at MDMX, the IC50 (commonly the midpoint of a concentration-inhibition curve) is above 1000 nM and the Ki – broadly, a dissociation constant, usually derived from enzyme kinetics or from competition with a known ligand – is above 1000 nM. On MDM2, the IC50 lay within 100 to 1000 nM and the Ki was in the range of 100 to 1000 nM.
